Our source for the inhibition and IC50 values is ChEMBL document CHEMBL6074623, “Carbamoylation at C-8 position of natural 3-arylcoumarin scaffold for the discovery of novel PARP-1 inhibitors with potent anticancer activity” (Eur J Med Chem, 2024).

As usually defined, the inhibition is the relative decrease from the control value, in per cent. As a reminder, the IC50 is the midpoint of a concentration-inhibition curve.

Each structure is given as a SMILES string.

Experiment [1] concerns SUM149PT. The experiment can be described thus: Antiproliferative activity against human SUM149PT cells assessed as inhibition of cell growth at 20 uM incubated for 48 hrs by MTT assay relative to control. It is filed as functional. For orientation: Tetrazolium assays rely on reduction of a dye to a coloured formazan, in cell work by metabolically active cells.
Experiment [2] deals with HCC1937. The experiment can be described thus: Antiproliferative activity against human HCC1937 cells assessed as inhibition of cell growth at 20 uM incubated for 48 hrs by MTT assay relative to control. It is filed as functional.
Experiment [3] has as its system MDA-MB-436. Briefly: Antiproliferative activity against human MDA-MB-436 cells assessed as inhibition of cell growth at 20 uM incubated for 48 hrs by MTT assay relative to control. It is filed as functional.
For experiment [4], the system named is SUM149PT. The experiment can be described thus: Antiproliferative activity against human SUM149PT cells assessed as inhibition of cell growth incubated for 48 hrs by MTT assay. It is filed as functional, cell-based.
For experiment [5], the system named is HCC1937. Briefly: Antiproliferative activity against human HCC1937 cells assessed as inhibition of cell growth incubated for 48 hrs by MTT assay. It is filed as functional, cell-based. The note with it: HCC1937, 48 h.
Experiment [6] deals with CAPAN-1. The experiment can be described thus: Antiproliferative activity against human CAPAN-1 cells assessed as inhibition of cell growth incubated for 48 hrs by MTT assay. It is filed as functional, cell-based. The following applies: CAPAN-1, 48 h.
The test system of experiment [7] is SUM149PT. Briefly: Antiproliferative activity against human SUM149PT cells assessed as inhibition of cell growth at 5 uM incubated for 48 hrs by MTT assay relative to control. It is filed as functional.
For experiment [8], the system named is HCC1937. Briefly: Antiproliferative activity against human HCC1937 cells assessed as inhibition of cell growth at 5 uM incubated for 48 hrs by MTT assay relative to control. It is filed as functional.
In experiment [9] the test system is CAPAN-1. The experiment can be described thus: Antiproliferative activity against human CAPAN-1 cells assessed as inhibition of cell growth at 20 uM incubated for 48 hrs by MTT assay relative to control. It is filed as functional.
Experiment [10] deals with CAPAN-1. Briefly: Antiproliferative activity against human CAPAN-1 cells assessed as inhibition of cell growth at 5 uM incubated for 48 hrs by MTT assay relative to control. It is filed as functional.

On to `COc1cc(OC)cc(-c2cc3cccc(C(N)=O)c3oc2=O)c1`, for which the inhibition at 20 µM was > 60% in experiment [1], > 60% in experiment [2] and < 40% in experiment [3].
`NC(=O)c1cc(F)cc2cc(-c3cccs3)c(=O)oc12`: the IC50 was 0.62 µM in experiment [4], 1.86 µM in experiment [5] and 17.2 µM in experiment [6]. Also, the inhibition at 20 µM in experiment [1] was > 80%; in experiment [2], > 80%; in [3] it was < 40%. For the same compound, the inhibition at 5 µM in experiment [7] and in [8] was > 70% each time.
`NC(=O)c1cccc2cc(-c3ccc4c(c3)CCO4)c(=O)oc12`: the inhibition at 20 µM in [1] was > 60%; in experiment [2], > 60%; in experiment [3], < 40%.
Turning to `COc1cc(-c2cc3cccc(C(N)=O)c3oc2=O)ccc1O`, the inhibition at 20 µM in [1] is > 60%; in [2] it was > 60%; in experiment [3] it was < 40%.
Turning to `NC(=O)c1cc(F)cc2cc(-c3ccc4c(c3)OCO4)c(=O)oc12`, the inhibition at 20 µM in experiment [1] was > 60%; in experiment [2] it was > 60%; in [3] it was < 40%.
On to `NC(=O)c1cc(F)cc2cc(-c3ccc(O)cc3)c(=O)oc12`, for which the figures for the inhibition at 20 µM in [1], in [2] and in experiment [3] were > 60%, > 60% and < 40%, respectively.
For `COc1cc(OC)cc(-c2cc3cc(F)cc(C(N)=O)c3oc2=O)c1`, the inhibition at 20 µM in experiment [1] was > 60%; in experiment [2], > 60%; in experiment [3] it was < 40%.
As to `NC(=O)c1cccc2cc(-c3ccc(O)cc3)c(=O)oc12`, the concentration for half-maximal inhibition (IC50) in [4] turned out to be 3.14 µM; in experiment [5], 10.8 µM; in [6] it was 19.1 µM. Further, the inhibition at 20 µM in experiment [1] is > 60%; in [2], > 60%; in experiment [3], < 40%.
In the case of `COc1ccc(-c2cc3cc(F)cc(C(N)=O)c3oc2=O)cc1OC`, the IC50 in experiment [4] amounted to 4.09 µM; in experiment [5], 3.67 µM; in experiment [6], 8.6 µM. For the same compound, the inhibition at 20 µM in experiment [1] was > 60%; in experiment [2], > 60%; in [3], < 40%.
Regarding `NC(=O)c1cccc2cc(-c3ccccc3O)c(=O)oc12`, the inhibition at 20 µM is > 60% in experiment [1], > 60% in experiment [2] and < 40% in experiment [3].
Turning to `COc1cccc(-c2cc3cccc(C(N)=O)c3oc2=O)c1`, the IC50 came out at 4.93 µM in [4], 0.62 µM in [5] and 4.6 µM in experiment [6]. Besides, the inhibition at 20 µM is > 60% in experiment [1], > 80% in experiment [2], > 60% in experiment [9] and < 40% in experiment [3]. Further, the results for the inhibition at 5 µM in experiment [8] and in [10] were > 70% and > 50%, respectively.
As for `NC(=O)c1cccc2cc(-c3ccccc3)c(=O)oc12`, the inhibition at 20 µM in experiment [1] is > 60%; in experiment [2] it was > 60%; in [9] it was > 60%; in experiment [3], < 40%. Also, in [10], the inhibition at 5 µM was > 50%.
Consider `COc1ccc(-c2cc3cc(F)cc(C(N)=O)c3oc2=O)cc1`, for which the inhibition at 20 µM is > 60% in [1], > 60% in [2] and < 40% in experiment [3].
`COc1ccc(-c2cc3cccc(C(N)=O)c3oc2=O)cc1`: the inhibition at 20 µM in [1] was > 60%; in experiment [2], > 60%; in experiment [3] it was < 40%.
